Experimental data from patent publication US20240158446A1, “CYCLIC COMPOUND HAVING SELECTIVE INHIBITORY ACTION ON KRAS OVER HRAS AND NRAS” (CHUGAI SEIYAKU KABUSHIKI KAISHA, priority 2021, published 2024).

Legend:
[1] = target: GDP-bound NRAS wild-type protein (Homo sapiens, UniProt P01111); assay: Binding to NRAS by surface plasmon resonance (SPR), Single Cycle Kinetics; settings: SPR; for NRAS/KRAS (ratio of KD value for NRAS to KD value for KRAS): GDP-bound NRAS wild-type protein vs GDP-bound KRAS wild-type protein
Sequence of GDP-bound NRAS wild-type protein (P01111 whole entry): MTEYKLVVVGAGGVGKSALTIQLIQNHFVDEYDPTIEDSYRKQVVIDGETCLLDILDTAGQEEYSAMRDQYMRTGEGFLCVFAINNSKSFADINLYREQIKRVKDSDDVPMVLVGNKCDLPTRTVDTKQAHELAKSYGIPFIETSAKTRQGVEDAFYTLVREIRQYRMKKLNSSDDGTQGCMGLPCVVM

[2] = target: GDP-bound HRAS wild-type protein (Homo sapiens, UniProt P01112); assay: Binding to HRAS by surface plasmon resonance (SPR), Single Cycle Kinetics; settings: SPR; for HRAS/KRAS (ratio of KD value for HRAS to KD value for KRAS): GDP-bound HRAS wild-type protein vs GDP-bound KRAS wild-type protein
Sequence of GDP-bound HRAS wild-type protein (P01112 whole entry): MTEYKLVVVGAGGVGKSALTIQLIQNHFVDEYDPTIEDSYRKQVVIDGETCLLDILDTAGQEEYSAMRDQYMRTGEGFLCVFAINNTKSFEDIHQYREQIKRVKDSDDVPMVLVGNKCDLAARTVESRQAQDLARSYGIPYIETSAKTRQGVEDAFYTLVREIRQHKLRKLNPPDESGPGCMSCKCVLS

[3] = target: GDP-bound KRAS wild-type protein (Homo sapiens, UniProt P01116); assay: Binding to KRAS by surface plasmon resonance (SPR), Single Cycle Kinetics; settings: SPR, Single Cycle Kinetics, GDP-bound KRAS wild-type protein; read-out: KRAS KD
Sequence of GDP-bound KRAS wild-type protein (P01116 whole entry): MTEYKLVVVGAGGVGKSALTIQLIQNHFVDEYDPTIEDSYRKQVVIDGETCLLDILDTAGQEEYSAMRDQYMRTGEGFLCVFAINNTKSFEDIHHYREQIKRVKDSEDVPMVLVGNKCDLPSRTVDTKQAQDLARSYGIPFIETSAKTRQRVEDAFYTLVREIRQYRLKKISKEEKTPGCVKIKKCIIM

SMILES	Kd [3] [nM]	NRAS/KRAS (KD ratio) ([1]; ratio of KD for GDP-bound NRAS wild-type protein to KD for KRAS)	HRAS/KRAS (KD ratio) ([2]; ratio of KD for GDP-bound HRAS wild-type protein to KD for KRAS)	NRAS/KRAS (ratio of KD value for NRAS to KD value for KRAS) [1]	HRAS/KRAS (ratio of KD value for HRAS to KD value for KRAS) [2]
CCO[C@@H]1C[C@H]2C(=O)NC3(CC(C)(C)C3)C(=O)N(C)[C@@H](C3CCCC3)C(=O)N(C)[C@H](C(=O)N(C)CC)CC(=O)N(C)[C@H]3CCC/C=C/c4ccc(cc4)C[C@@H](C(=O)N(C)CC(=O)N[C@@H](CCc4cc(F)c(C(F)(F)F)c(F)c4)C(=O)N2C1)N1CC/C=C\C[C@@H](C1=O)N(C)C(=O)CN(C)C(=O)[C@H]([C@@H](C)CC)NC3=O [PP1835]	0.051	A (a compound having 10 or more and less than 20 is denoted as A)	B (a compound having 3 or more and less than 10 is denoted as B)	–	–
CCO[C@@H]1C[C@H]2C(=O)NC3(CC(C)(C)C3)C(=O)N(C)[C@@H](C3CCCC3)C(=O)N(C)[C@H](C(=O)N(C)CC)CC(=O)N(C)[C@@H](C3CCC3)C(=O)N[C@@H]([C@@H](C)CC)C(=O)N(C)CC(=O)N(C)[C@H]3C/C=C\CCN(C3=O)[C@@H](Cc3ccc(C(F)(F)F)cc3)C(=O)N(C)CC(=O)N[C@@H](CCc3cc(F)c(C(F)(F)F)c(F)c3)C(=O)N2C1 [PP2038]	0.16	–	–	A (a compound having 10 or more and less than 20 is denoted as A)	A (a compound having 10 or more and less than 20 is denoted as A)
CCO[C@@H]1C[C@H]2C(=O)NC3(CC(C)(C)C3)C(=O)N(C)[C@@H](C3CCCC3)C(=O)N(C)[C@H](C(=O)N(C)CC)CC(=O)N(C)[C@@H](CC(C)C)C(=O)N[C@@H]([C@@H](C)CC)C(=O)N(C)CC(=O)N(C)[C@H]3C/C=C\CCN(C3=O)[C@@H](Cc3ccc(C(F)F)cc3)C(=O)N(C)CC(=O)N[C@@H](CCc3cc(F)c(C(F)(F)F)c(F)c3)C(=O)N2C1 [PP2046]	0.063	–	–	A (a compound having 10 or more and less than 20 is denoted as A)	A (a compound having 10 or more and less than 20 is denoted as A)
CCO[C@@H]1C[C@H]2C(=O)NC3(CC(C)(C)C3)C(=O)N(C)[C@@H](C3CCCC3)C(=O)N(C)[C@H](C(=O)N(C)C)CC(=O)N(C)[C@@H](CC)C(=O)N[C@@H]([C@@H](C)CC)C(=O)N(C)CC(=O)N(C)[C@H]3C/C=C\CCN(C3=O)[C@@H](Cc3ccc(Cl)cc3F)C(=O)N(C)CC(=O)N[C@@H](CCc3cc(F)c(C(F)(F)F)c(F)c3)C(=O)N2C1 [PP2048]	0.071	–	–	A (a compound having 10 or more and less than 20 is denoted as A)	B (a compound having 3 or more and less than 10 is denoted as B)
CCO[C@@H]1C[C@H]2C(=O)NC3(CC(C)(C)C3)C(=O)N(C)[C@@H](C3CCCC3)C(=O)N(C)[C@H](C(=O)N(C)C)CC(=O)N(C)[C@@H](CC)C(=O)N[C@@H]([C@@H](C)CC)C(=O)N(C)CC(=O)N(C)[C@H]3C/C=C\CCN(C3=O)[C@@H](Cc3ccc(C(F)F)cc3)C(=O)N(C)CC(=O)N[C@@H](CCc3cc(F)c(C(F)(F)F)c(F)c3)C(=O)N2C1 [PP2049]	0.04	–	–	A (a compound having 10 or more and less than 20 is denoted as A)	B (a compound having 3 or more and less than 10 is denoted as B)
C=CCN1CC(=O)N(C)[C@H]2C/C=C\CCN(C2=O)[C@@H](Cc2ccc(C)cc2)C(=O)N(C)CC(=O)N[C@@H](CCc2cc(F)c(C(F)(F)F)c(F)c2)C(=O)N2C[C@H](OCC)C[C@H]2C(=O)NC2(CC(C)(C)C2)C(=O)N(C)[C@@H](C2CCCC2)C(=O)N(C)[C@H](C(=O)N(C)C)CC(=O)N(C)[C@@H](CC(C)C)C(=O)N[C@@H]([C@@H](C)CC)C1=O [PP2050]	0.19	–	–	A (a compound having 10 or more and less than 20 is denoted as A)	A (a compound having 10 or more and less than 20 is denoted as A)
C#CC[C@H]1C(=O)N[C@@H]([C@@H](C)CC)C(=O)N(C)CC(=O)N(C)[C@H]2C/C=C\CCN(C2=O)[C@@H](Cc2ccc(C(F)(F)F)cc2)C(=O)N(C)CC(=O)N[C@@H](CCc2ccc(C(F)(F)F)c(OC)c2)C(=O)N2C[C@H](OCC)C[C@H]2C(=O)NC2(CC(C)(C)C2)C(=O)N(C)[C@@H](C2CCCC2)C(=O)N(C)[C@H](C(=O)N(C)CC)CC(=O)N1C [PP2051]	0.12	–	–	A (a compound having 10 or more and less than 20 is denoted as A)	A (a compound having 10 or more and less than 20 is denoted as A)
C#CCN1CC(=O)N(C)[C@H]2C/C=C\CCN(C2=O)[C@@H](Cc2ccc(C)cc2)C(=O)N(C)CC(=O)N[C@@H](CCc2cc(F)c(C(F)(F)F)c(F)c2)C(=O)N2C[C@H](OCC)C[C@H]2C(=O)NC2(CC(C)(C)C2)C(=O)N(C)[C@@H](C2CCCC2)C(=O)N(C)[C@H](C(=O)N(C)C)CC(=O)N(C)[C@@H](CC(C)C)C(=O)N[C@@H]([C@@H](C)CC)C1=O [PP2052]	0.16	–	–	A (a compound having 10 or more and less than 20 is denoted as A)	A (a compound having 10 or more and less than 20 is denoted as A)
C#CC[C@H]1C(=O)N[C@@H]([C@@H](C)CC)C(=O)N(C)CC(=O)N(C)[C@H]2C/C=C\CCN(C2=O)[C@@H](Cc2ccc(C(F)(F)F)cc2)C(=O)N(C)CC(=O)N[C@@H](CCc2ccc(C(F)(F)F)c(OC)c2)C(=O)N2C[C@H](OCC)C[C@H]2C(=O)NC2(CC(C)(C)C2)C(=O)N(C)[C@@H](C2CCCC2)C(=O)N(C)[C@H](C(=O)N(C)CCC)CC(=O)N1C [PP2053]	0.13	–	–	A (a compound having 10 or more and less than 20 is denoted as A)	A (a compound having 10 or more and less than 20 is denoted as A)

Now from value to compound, other results behind:

Kd [3] [nM]	SMILES	NRAS/KRAS (KD ratio) ([1]; ratio of KD for GDP-bound NRAS wild-type protein to KD for KRAS)	HRAS/KRAS (KD ratio) ([2]; ratio of KD for GDP-bound HRAS wild-type protein to KD for KRAS)	NRAS/KRAS (ratio of KD value for NRAS to KD value for KRAS) [1]	HRAS/KRAS (ratio of KD value for HRAS to KD value for KRAS) [2]
0.19	CCO[C@@H]1C[C@H]2C(=O)NC3(CC(C)(C)C3)C(=O)N(C)[C@@H](C3CCCC3)C(=O)N(C)[C@H](C(=O)N(C)CC)CC(=O)N(C)[C@@H](C(C)C)C(=O)N[C@@H]([C@@H](C)CC)C(=O)N(C)CC(=O)N(C)[C@H]3C/C=C\CCN(C3=O)[C@@H](Cc3ccc(C(F)(F)F)cc3)C(=O)N(C)CC(=O)N[C@@H](CCc3cc(F)c(C(F)(F)F)c(F)c3)C(=O)N2C1 [PP2034]	–	–	A (a compound having 10 or more and less than 20 is denoted as A)	A (a compound having 10 or more and less than 20 is denoted as A)
0.089	CCO[C@@H]1C[C@H]2C(=O)NC3(CC(C)(C)C3)C(=O)N(C)[C@@H](C3CCCC3)C(=O)N(C)[C@H](C(=O)N(C)CC)CC(=O)N(C)[C@@H](C3CC3)C(=O)N[C@@H]([C@@H](C)CC)C(=O)N(C)CC(=O)N(C)[C@H]3C/C=C\CCN(C3=O)[C@@H](Cc3ccc(C(F)(F)F)cc3)C(=O)N(C)CC(=O)N[C@@H](CCc3cc(F)c(C(F)(F)F)c(F)c3)C(=O)N2C1 [PP2036]	–	–	A (a compound having 10 or more and less than 20 is denoted as A)	A (a compound having 10 or more and less than 20 is denoted as A)
0.31	CCCN(C)C(=O)[C@@H]1CC(=O)N(C)[C@@H](CC(F)F)C(=O)N[C@@H]([C@@H](C)CC)C(=O)N(C)CC(=O)N(C)[C@H]2C/C=C\CCN(C2=O)[C@@H](Cc2ccc(C(F)(F)F)cc2)C(=O)N(C)CC(=O)N[C@@H](CCc2cc(F)c(C(F)(F)F)c(F)c2)C(=O)N2C[C@@H](C)C[C@H]2C(=O)NC2(CC(C)(C)C2)C(=O)N(C)[C@@H](C2CCCC2)C(=O)N1C [PP2040]	–	–	A (a compound having 10 or more and less than 20 is denoted as A)	A (a compound having 10 or more and less than 20 is denoted as A)
0.19	CCCN(C)C(=O)[C@@H]1CC(=O)N(C)[C@@H](COCC)C(=O)N[C@@H]([C@@H](C)CC)C(=O)N(C)CC(=O)N(C)[C@H]2C/C=C\CCN(C2=O)[C@@H](Cc2ccc(C(F)(F)F)cc2)C(=O)N(C)CC(=O)N[C@@H](CCc2cc(F)c(C(F)(F)F)c(F)c2)C(=O)N2C[C@@H](C)C[C@H]2C(=O)NC2(CC(C)(C)C2)C(=O)N(C)[C@@H](C2CCCC2)C(=O)N1C [PP2041]	–	–	A (a compound having 10 or more and less than 20 is denoted as A)	A (a compound having 10 or more and less than 20 is denoted as A)
0.14	CCOC[C@H]1C(=O)N[C@@H]([C@@H](C)CC)C(=O)N(C)CC(=O)N(C)[C@H]2C/C=C\CCN(C2=O)[C@@H](Cc2ccc(C(F)(F)F)cc2)C(=O)N(C)CC(=O)N[C@@H](CCc2cc(F)c(C(F)(F)F)c(F)c2)C(=O)N2C[C@@H](C)C[C@H]2C(=O)NC2(CC(C)(C)C2)C(=O)N(C)[C@@H](C2CCCC2)C(=O)N(C)[C@H](C(=O)N(C)CC)CC(=O)N1C [PP2042]	–	–	A (a compound having 10 or more and less than 20 is denoted as A)	A (a compound having 10 or more and less than 20 is denoted as A)
0.21	CCCOC[C@H]1C(=O)N[C@@H]([C@@H](C)CC)C(=O)N(C)CC(=O)N(C)[C@H]2C/C=C\CCN(C2=O)[C@@H](Cc2ccc(C(F)(F)F)cc2)C(=O)N(C)CC(=O)N[C@@H](CCc2cc(F)c(C(F)(F)F)c(F)c2)C(=O)N2C[C@@H](C)C[C@H]2C(=O)NC2(CC(C)(C)C2)C(=O)N(C)[C@@H](C2CCCC2)C(=O)N(C)[C@H](C(=O)N(C)CC)CC(=O)N1C [PP2043]	–	–	A (a compound having 10 or more and less than 20 is denoted as A)	A (a compound having 10 or more and less than 20 is denoted as A)
